Values after ≈ are worked out from the molar mass of the structure shown.
Key:
[1] = test system: methicillin-resistant Staphylococcus aureus (MRSA, ATCC #33591); assay: Antibacterial assay, MIC by dilution antimicrobial susceptibility test; assay type: cell-based; settings: ATCC33591|MRSA, 18 h, read-out: MIC against MRSA
[2] = test system: methicillin-sensitive Staphylococcus aureus (MSSA, ATCC #29213); assay: as above; assay type: cell-based; settings: ATCC29213|MSSA, 18 h, read-out: MIC against MSSA
[3] = qualitative statement from the literature; cited from earlier work

Row | Molecule | MIC [1] [µg/mL] | MIC [2] [µg/mL] | antibacterial activity (reported) [3]
1 | CN[C@H](CC(C)C)C(=O)N[C@H]1C(=O)N[C@@H](CC(N)=O)C(=O)N[C@H]2C(=O)N[C@H]3C(=O)N[C@H](C(=O)N[C@H](C(=O)O)c4cc(O)cc(O)c4-c4cc3ccc4O)[C@H](O)c3ccc(c(Cl)c3)Oc3cc2cc(c3O[C@@H]2O[C@H](CO)[C@@H](O)[C@H](O)[C@H]2O[C@H]2C[C@](C)(N)[C@H](O)[C@H](C)O2)Oc2ccc(cc2Cl)[C@H]1O [Vancomycin] | 1 (≈ 0.69 µM) | 1 (≈ 0.69 µM) | 
2 | peptidolipin NA |  |  | moderate antibacterial activity

Source: publication PMC3349995 (Journal of Natural Products, 2012)
